# Data taken from the supplement of paper PMC11061612.
# Key:
# Carboplatin = compound: C1CC(C1)(C(=O)[O-])C(=O)[O-].N.N.[Pt+2] [Carboplatin]; conditions: max 10 µM
# How it was run: (§1)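 Cancer cell lines were plated in 1536-well plates in 7.5 μl of DMEM/F12 or RPMI with 10% FBS and kept 24 hours at 37°C and 5% CO2 before 72 hours of dosing, with final DMSO typically 0.2%. CellTiter-Glo 2.0 luminescence measured viability, scaled between blank-well and DMSO-well means. Dose responses were fitted to a two-parameter logistic curve with a non-linear mixed effects model. This fit gives the single-agent IC50.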
# AZD5363 = compound: C1CN(CCC1(C(=O)N[C@@H](CCO)C2=CC=C(C=C2)Cl)N)C3=NC=NC4=C3C=CN4 [AZD5363]; conditions: max 10 µM
# How it was run: as §1
# AZD1775 = compound: C=CCn1c(=O)c2cnc(Nc3ccc(N4CCN(C)CC4)cc3)nc2n1-c1cccc(C(C)(C)O)n1 [AZD1775]; conditions: max 3 µM
# How it was run: as §1
# Trametinib = compound: CC(=O)Nc1cccc(-n2c(=O)n(C3CC3)c(=O)c3c(Nc4ccc(I)cc4F)n(C)c(=O)c(C)c32)c1 [Trametinib]; conditions: max 1 µM
# How it was run: as §1
# Paclitaxel = compound: CC(=O)O[C@H]1C(=O)[C@@]2(C)[C@H]([C@H](OC(=O)c3ccccc3)[C@]3(O)C[C@H](OC(=O)[C@H](O)[C@@H](NC(=O)c4ccccc4)c4ccccc4)C(C)=C1C3(C)C)[C@]1(OC(C)=O)CO[C@@H]1C[C@@H]2O [Paclitaxel]; conditions: max 3 µM
# How it was run: as §1
# Palbociclib = compound: CC(=O)c1c(C)c2cnc(Nc3ccc(N4CCNCC4)cn3)nc2n(C2CCCC2)c1=O [Palbociclib]; conditions: max 10 µM
# How it was run: as §1
# AZD1390 = compound: CC(C)n1c(=O)n(C)c2cnc3cc(F)c(-c4ccc(OCCCN5CCCCC5)nc4)cc3c21 [AZD1390]; conditions: max 0.3 µM
# How it was run: as §1
# Venetoclax = compound: CC1(C)CCC(CN2CCN(c3ccc(C(=O)NS(=O)(=O)c4ccc(NCC5CCOCC5)c([N+](=O)[O-])c4)c(Oc4cnc5[nH]ccc5c4)c3)CC2)=C(c2ccc(Cl)cc2)C1 [Venetoclax]; conditions: max 1 µM
# How it was run: as §1
# Dasatinib = compound: CC1=C(C(=CC=C1)Cl)NC(=O)C2=CN=C(S2)NC3=CC(=NC(=N3)C)N4CCN(CC4)CCO [Dasatinib]; conditions: max 2 µM
# How it was run: as §1
# SG3199 = compound: CC1=CN2[C@@H](C1)C=NC3=CC(=C(C=C3C2=O)OC)OCCCCCOC4=C(C=C5C(=C4)N=C[C@@H]6CC(=CN6C5=O)C)OC [SG3199]; conditions: max 0.001 µM
# How it was run: as §1
# AZD2811 = compound: CCN(CCO)CCCOc1ccc2c(Nc3cc(CC(=O)Nc4cccc(F)c4)[nH]n3)ncnc2c1 [AZD2811]; conditions: max 1 µM
# How it was run: as §1
# SN-38 = compound: CCc1c2c(nc3ccc(O)cc13)-c1cc3c(c(=O)n1C2)COC(=O)[C@]3(O)CC [SN-38]; conditions: max 0.3 µM
# How it was run: as §1
# AZD0156 = compound: CN(C)CCCOc1ccc(-c2ccc3ncc4c(c3c2)n(C2CCOCC2)c(=O)n4C)cn1 [AZD0156]; conditions: max 3 µM
# How it was run: as §1
# AZD4320 = compound: CN(CC[C@H](CSC1=CC=CC=C1)NC2=C(C=C(C=C2)S(=O)(=O)NC(=O)C3=CC=C(C=C3)N4CCC(CC4)[C@H](C5=CC=CC=C5C6=CC=C(C=C6)Cl)O)S(=O)(=O)C(F)(F)F)CCO [AZD4320]; conditions: max 1 µM
# How it was run: as §1
# Alisertib = compound: COc1cc(Nc2ncc3c(n2)-c2ccc(Cl)cc2C(c2c(F)cccc2OC)=NC3)ccc1C(=O)O [Alisertib]; conditions: max 10 µM
# How it was run: as §1
# Etoposide = compound: COc1cc([C@@H]2c3cc4c(cc3[C@@H](O[C@@H]3O[C@@H]5CO[C@@H](C)O[C@H]5[C@H](O)[C@H]3O)[C@H]3COC(=O)[C@H]23)OCO4)cc(OC)c1O [Etoposide]; conditions: max 10 µM
# How it was run: as §1
# Gefitinib = compound: COc1cc2ncnc(Nc3ccc(F)c(Cl)c3)c2cc1OCCCN1CCOCC1 [Gefitinib]; conditions: max 10 µM
# How it was run: as §1
# Prexasertib = compound: COc1cccc(OCCCN)c1-c1cc(Nc2cnc(C#N)cn2)n[nH]1 [Prexasertib]; conditions: max 1 µM
# How it was run: as §1
# Doxorubicin = compound: COc1cccc2c1C(=O)c1c(O)c3c(c(O)c1C2=O)C[C@@](O)(C(=O)CO)C[C@@H]3O[C@H]1C[C@H](N)[C@H](O)[C@H](C)O1 [Doxorubicin]; conditions: max 1 µM
# How it was run: as §1
# AZD5153 = compound: COc1nnc2ccc(N3CCC(c4ccc(OCCN5CCN(C)C(=O)[C@H]5C)cc4)CC3)nn12 [AZD5153]; conditions: max 1 µM
# How it was run: as §1
# Lapatinib = compound: CS(=O)(=O)CCNCc1ccc(-c2ccc3ncnc(Nc4ccc(OCc5cccc(F)c5)c(Cl)c4)c3c2)o1 [Lapatinib]; conditions: max 10 µM
# How it was run: as §1
# AZD8186 = compound: C[C@@H](Nc1cc(F)cc(F)c1)c1cc(C(=O)N(C)C)cc2c(=O)cc(N3CCOCC3)oc12 [AZD8186]; conditions: max 10 µM
# How it was run: as §1
# Crizotinib = compound: C[C@@H](Oc1cc(-c2cnn(C3CCNCC3)c2)cnc1N)c1c(Cl)ccc(F)c1Cl [Crizotinib]; conditions: max 10 µM
# How it was run: as §1
# Savolitinib = compound: C[C@@H](c1ccc2nccn2c1)n1nnc2ncc(-c3cnn(C)c3)nc21 [Savolitinib]; conditions: max 1 µM
# How it was run: as §1
# AZD6738 = compound: C[C@@H]1COCCN1C2=NC(=NC(=C2)C3(CC3)[S@](=N)(=O)C)C4=C5C=CNC5=NC=C4 [AZD6738]; conditions: max 10 µM
# How it was run: as §1
# AZD5991 = compound: Cc1c2c(nn1C)CSCc1cc(n(C)n1)CSc1cc(c3ccccc3c1)OCCCc1c(C(=O)O)n(C)c3c-2c(Cl)ccc13 [AZD5991]; conditions: max 1 µM
# How it was run: as §1
# AZD7648 = compound: Cc1cc2ncnn2cc1Nc1ncc2c(n1)n(C1CCOCC1)c(=O)n2C [AZD7648]; conditions: max 10 µM
# How it was run: as §1
# Taselisib = compound: Cc1nc(-c2cn3c(n2)-c2ccc(-c4cnn(C(C)(C)C(N)=O)c4)cc2OCC3)n(C(C)C)n1 [Taselisib]; conditions: max 10 µM
# How it was run: as §1
# Selumetinib = compound: Cn1cnc2c(F)c(Nc3ccc(Br)cc3Cl)c(C(=O)NOCCO)cc21 [Selumetinib]; conditions: max 10 µM
# How it was run: as §1
# SRA737 = compound: N#Cc1cnc(Nc2cc(NC[C@H]3CNCCO3)c(C(F)(F)F)cn2)cn1 [SRA737]; conditions: max 10 µM
# How it was run: as §1
# MK-2206 = compound: NC1(c2ccc(-c3nc4ccn5c(=O)[nH]nc5c4cc3-c3ccccc3)cc2)CCC1 [MK-2206]; conditions: max 10 µM
# How it was run: as §1
# Gemcitabine = compound: Nc1ccn([C@@H]2O[C@H](CO)[C@@H](O)C2(F)F)c(=O)n1 [Gemcitabine]; conditions: max 0.3 µM
# How it was run: as §1
# [1] = compound: O=C(Nc1ccc2[nH]nc(-c3ccncc3)c2c1)[C@@H]1CCN(CC(=O)N2CCN(c3ccc(-c4ncccn4)cc3)CC2)C1; conditions: max 5 µM
# How it was run: as §1
# Olaparib = compound: O=C(c1cc(Cc2n[nH]c(=O)c3ccccc23)ccc1F)N1CCN(C(=O)C2CC2)CC1 [Olaparib]; conditions: max 10 µM
# How it was run: as §1
# 5-Fluorouracil = compound: O=c1[nH]cc(F)c(=O)[nH]1 [5-Fluorouracil]; conditions: max 20 µM
# How it was run: as §1
Cell Line,"IC50, cell viability 72 h (Carboplatin) [nM]","IC50, cell viability 72 h (AZD5363) [nM]","IC50, cell viability 72 h (AZD1775) [nM]","IC50, cell viability 72 h (Trametinib) [nM]","IC50, cell viability 72 h (Paclitaxel) [nM]","IC50, cell viability 72 h (Palbociclib) [nM]","IC50, cell viability 72 h (AZD1390) [nM]","IC50, cell viability 72 h (Venetoclax) [nM]","IC50, cell viability 72 h (Dasatinib) [nM]","IC50, cell viability 72 h (SG3199) [nM]","IC50, cell viability 72 h (AZD2811) [nM]","IC50, cell viability 72 h (SN-38) [nM]","IC50, cell viability 72 h (AZD0156) [nM]","IC50, cell viability 72 h (AZD4320) [nM]","IC50, cell viability 72 h (Alisertib) [nM]","IC50, cell viability 72 h (Etoposide) [nM]","IC50, cell viability 72 h (Gefitinib) [nM]","IC50, cell viability 72 h (Prexasertib) [nM]","IC50, cell viability 72 h (Doxorubicin) [nM]","IC50, cell viability 72 h (AZD5153) [nM]","IC50, cell viability 72 h (Lapatinib) [nM]","IC50, cell viability 72 h (AZD8186) [nM]","IC50, cell viability 72 h (Crizotinib) [nM]","IC50, cell viability 72 h (Savolitinib) [nM]","IC50, cell viability 72 h (AZD6738) [nM]","IC50, cell viability 72 h (AZD5991) [nM]","IC50, cell viability 72 h (AZD7648) [nM]","IC50, cell viability 72 h (Taselisib) [nM]","IC50, cell viability 72 h (Selumetinib) [nM]","IC50, cell viability 72 h (SRA737) [nM]","IC50, cell viability 72 h (MK-2206) [nM]","IC50, cell viability 72 h (Gemcitabine) [nM]","IC50, cell viability 72 h [1] [nM]","IC50, cell viability 72 h (Olaparib) [nM]","IC50, cell viability 72 h (5-Fluorouracil) [nM]"
ONS-76 (Other Solid Carcinomas),> 10000,> 10000,1190,23.9,66.1,> 10000,> 300,> 1000,> 2000,> 1,> 1000,43.7,> 3000,> 1000,> 10000,8960,> 10000,8.7,252,940,> 10000,> 10000,> 10000,> 1000,1000,> 1000,> 10000,> 10000,1910,1690,> 10000,257,270,> 10000,> 20000
PANC-10-05 (Pancreatic Carcinoma),> 10000,> 10000,1270,438,378,> 10000,> 300,> 1000,1510,> 1,> 1000,59.5,> 3000,> 1000,> 10000,> 10000,> 10000,> 1000,> 1000,732,> 10000,> 10000,> 10000,> 1000,> 10000,> 1000,> 10000,7170,> 10000,> 10000,> 10000,> 300,3330,> 10000,> 20000
TT (Thyroid Gland Carcinoma),> 10000,> 10000,> 3000,> 1000,> 3000,> 10000,> 300,> 1000,> 2000,> 1,> 1000,68.8,> 3000,> 1000,> 10000,> 10000,> 10000,249,> 1000,808,> 10000,> 10000,> 10000,> 1000,> 10000,> 1000,> 10000,> 10000,> 10000,> 10000,> 10000,> 300,> 5000,> 10000,> 20000
U-2-OS (Osteosarcoma),> 10000,> 10000,1080,140,162,> 10000,> 300,> 1000,> 2000,> 1,> 1000,> 300,> 3000,> 1000,> 10000,> 10000,> 10000,17.4,> 1000,> 1000,> 10000,> 10000,> 10000,> 1000,> 10000,> 1000,> 10000,> 10000,> 10000,5430,> 10000,> 300,2130,> 10000,> 20000
VCaP (Prostate Carcinoma),> 10000,7960,1450,> 1000,22.4,> 10000,> 300,> 1000,> 2000,> 1,> 1000,205,> 3000,> 1000,> 10000,9350,> 10000,85.4,> 1000,122,> 10000,> 10000,> 10000,> 1000,> 10000,316,> 10000,3150,> 10000,> 10000,9700,65,> 5000,> 10000,> 20000
